Source: ChEMBL document CHEMBL1144207, “Molecular design of potent tyrosinase inhibitors having the bibenzyl skeleton” (Bioorg Med Chem Lett, 2008)

Target: T1, Tyrosinase (Agaricus bisporus, UniProt O42713)
T1 sequence (O42713 whole entry): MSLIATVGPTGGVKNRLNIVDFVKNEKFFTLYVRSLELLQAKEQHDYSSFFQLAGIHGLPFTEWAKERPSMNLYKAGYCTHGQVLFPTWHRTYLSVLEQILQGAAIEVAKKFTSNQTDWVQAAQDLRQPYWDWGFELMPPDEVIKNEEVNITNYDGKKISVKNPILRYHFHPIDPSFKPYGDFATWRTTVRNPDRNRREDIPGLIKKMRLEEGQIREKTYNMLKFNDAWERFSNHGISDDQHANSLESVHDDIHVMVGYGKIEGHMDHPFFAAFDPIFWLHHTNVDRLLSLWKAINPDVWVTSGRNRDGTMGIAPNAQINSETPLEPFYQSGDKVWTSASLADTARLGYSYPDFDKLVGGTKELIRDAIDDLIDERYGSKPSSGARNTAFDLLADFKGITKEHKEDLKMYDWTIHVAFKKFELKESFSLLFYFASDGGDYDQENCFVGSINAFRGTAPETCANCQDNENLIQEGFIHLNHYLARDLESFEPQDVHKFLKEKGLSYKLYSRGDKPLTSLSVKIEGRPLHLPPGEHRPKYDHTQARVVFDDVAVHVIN
Description: Inhibition of mushroom tyrosinase

SMILES	IC50 [nM]
Oc1ccc(CCc2ccc(O)cc2O[C@@H]2OC[C@@H](O)[C@H](O)[C@H]2O)c(O)c1	1600
Oc1ccc(CCc2ccc(O[C@@H]3OC[C@@H](O)[C@H](O)[C@H]3O)cc2O)c(O)c1	430
